Laboratory results from article PMC6061858 (2018).

Assays:
[1] = system: bhmT U9 4-thiouridine (RNA, riboswitch, 4-thiouridine at U9 (metY numbering; position 7 of strand)) GGGCAGUUGAACCAUAUUGUGCGCCCUGCAUUUGCUUAAGCACUAAAAAGGA; test: ITC; conditions: 100 mM KCl, 10 mM MgCl2; 40 mM HEPES pH 7.2, 298 K; 200 µM SAM titrated into 15 µM RNA
[2] = system: metY 53 nt, 5-bromocytosine (crystallized) (RNA, riboswitch, 5-bromocytidine at 4) AGGCGCAUUUGAACUGUAUUGUACGCCUUGCAUAAAGCAAAAGUACUAAAAAA; test: X-ray crystallography (2.5 Å); conditions: co-crystal, space group P4_122
[3] = system: metY A50Inosine (RNA, riboswitch, inosine at 50 (replaces A50)) AGGCGCAUUUGAACUGUAUUGUACGCCUUGCAUAAAGCAAAAGUACUAAAAAAGG; test: ITC; conditions: 100 mM KCl, 10 mM MgCl2; 40 mM HEPES pH 7.2, 298 K; 200 µM SAM titrated into 15 µM RNA
[4] = system: bhmT 49 nt (SAM-49) (RNA, riboswitch) GGGCAGUUGAACCAUAUUGUGCGCCCUGCAUUUGCUUAAGCACUAAAAA; test: ITC; conditions: 100 mM KCl, 10 mM MgCl2; 40 mM HEPES pH 7.2, 298 K; 200 µM SAM titrated into 15 µM RNA
[5] = system: metY U47Isocytidine (RNA, riboswitch, isocytidine at 47 (replaces U47)) AGGCGCAUUUGAACUGUAUUGUACGCCUUGCAUAAAGCAAAAGUACUAAAAAAGG; test: ITC; conditions: 100 mM KCl, 10 mM MgCl2; 40 mM HEPES pH 7.2, 298 K; 200 µM SAM titrated into 15 µM RNA
[6] = system: bhmT A50Ino (RNA, riboswitch, inosine at A50 (metY numbering; position 47 of strand)) GGGCAGUUGAACCAUAUUGUGCGCCCUGCAUUUGCUUAAGCACUAAAAAGGA; test: ITC; conditions: 100 mM KCl, 10 mM MgCl2; 40 mM HEPES pH 7.2, 298 K
[7] = system: metY 55 nt (metY SAM-V riboswitch) (RNA, riboswitch) AGGCGCAUUUGAACUGUAUUGUACGCCUUGCAUAAAGCAAAAGUACUAAAAAAGG; test: ITC; conditions: 100 mM KCl, 10 mM MgCl2, 40 mM HEPES pH 7.2, 298 K
[8] = system: bhmT A50Pur (RNA, riboswitch, purine at A50 (metY numbering; position 47 of strand)) GGGCAGUUGAACCAUAUUGUGCGCCCUGCAUUUGCUUAAGCACUAAAAAGGA; test: ITC; conditions: 100 mM KCl, 10 mM MgCl2; 40 mM HEPES pH 7.2, 298 K
[9] = system: bhmT U20 4-thiouridine (RNA, riboswitch, 4-thiouridine at U20 (metY numbering; position 18 of strand)) GGGCAGUUGAACCAUAUUGUGCGCCCUGCAUUUGCUUAAGCACUAAAAAGGA; test: ITC; conditions: 100 mM KCl, 10 mM MgCl2; 40 mM HEPES pH 7.2, 298 K; 200 µM SAM titrated into 15 µM RNA
[10] = system: bhmT U47Isocytidine (RNA, riboswitch, isocytidine at U47 (metY numbering; position 44 of strand)) GGGCAGUUGAACCAUAUUGUGCGCCCUGCAUUUGCUUAAGCACUAAAAAGGA; test: ITC; conditions: 100 mM KCl, 10 mM MgCl2; 40 mM HEPES pH 7.2, 298 K; 200 µM SAM titrated into 15 µM RNA
[11] = system: bhmT 52 nt (SAM-52) (RNA, riboswitch) GGGCAGUUGAACCAUAUUGUGCGCCCUGCAUUUGCUUAAGCACUAAAAAGGA; test: ITC; conditions: 100 mM KCl, 10 mM MgCl2, 40 mM HEPES pH 7.2, 298 K
[12] = system: metY A50Pur (RNA, riboswitch, purine at 50 (replaces A50)) AGGCGCAUUUGAACUGUAUUGUACGCCUUGCAUAAAGCAAAAGUACUAAAAAAGG; test: ITC; conditions: 100 mM KCl, 10 mM MgCl2; 40 mM HEPES pH 7.2, 298 K
[13] = system: metY 53 nt (RNA, riboswitch) AGGCGCAUUUGAACUGUAUUGUACGCCUUGCAUAAAGCAAAAGUACUAAAAAA; test: ITC; conditions: 100 mM KCl, 10 mM MgCl2; 40 mM HEPES pH 7.2, 298 K; 200 µM SAM titrated into 15 µM RNA
[14] = 200-250 µM SAH titrated into 15 µM RNA

binding [1]	binding [2]	binding [3]	binding [4]	binding [5]	Kd [6]	Kd [7]	Kd [8]	binding [9]	binding [10]	Kd [11]	Kd [12]	binding [13]	binding [7, 14]	binding [11, 14]	SMILES
no	yes	weak	no	no	16.8 ± 2.6 µM	4.37 ± 0.21 µM	0.90 ± 0.10 µM	weak	no	0.50 ± 0.08 µM	14.7 ± 1.8 µM	no			C[S+](CC[C@H](N)C(=O)O)C[C@H]1O[C@@H](n2cnc3c(N)ncnc32)[C@H](O)[C@@H]1O (stereo partly drawn)
													no	no	Nc1ncnc2c1ncn2[C@@H]1O[C@H](CSCC[C@H](N)C(=O)O)[C@@H](O)[C@H]1O
